Assay results taken from ChEMBL document CHEMBL3112424, “Discovery and optimization of pyrimidone indoline amide PI3Kβ inhibitors for the treatment of phosphatase and tensin homologue (PTEN)-deficient cancers” (J Med Chem, 2014).
pIC50: −log10 of the molar value. Converted amounts (≈) assume the structure as drawn.

Tests used:
[1] = Solubility of the compound in phosphate buffer at pH 7.4 by HPLC analysis; conditions: phosphate buffer
[2] = Metabolic stability in mouse liver microsomes at 5 uM after 20 mins
[3] = molecular target: Phosphatidylinositol 4,5-bisphosphate 3-kinase catalytic subunit alpha isoform (Homo sapiens, UniProt P42336); experiment: Inhibition of N-terminal ploy-His-tagged human PI3Kalpha expressed in baculovirus-infected sf9 cells using PI(4,5)P2 as substrate after 15 mins by HTRF assay
Chain of Phosphatidylinositol 4,5-bisphosphate 3-kinase catalytic subunit alpha isoform (P42336 whole entry, canonical isoform): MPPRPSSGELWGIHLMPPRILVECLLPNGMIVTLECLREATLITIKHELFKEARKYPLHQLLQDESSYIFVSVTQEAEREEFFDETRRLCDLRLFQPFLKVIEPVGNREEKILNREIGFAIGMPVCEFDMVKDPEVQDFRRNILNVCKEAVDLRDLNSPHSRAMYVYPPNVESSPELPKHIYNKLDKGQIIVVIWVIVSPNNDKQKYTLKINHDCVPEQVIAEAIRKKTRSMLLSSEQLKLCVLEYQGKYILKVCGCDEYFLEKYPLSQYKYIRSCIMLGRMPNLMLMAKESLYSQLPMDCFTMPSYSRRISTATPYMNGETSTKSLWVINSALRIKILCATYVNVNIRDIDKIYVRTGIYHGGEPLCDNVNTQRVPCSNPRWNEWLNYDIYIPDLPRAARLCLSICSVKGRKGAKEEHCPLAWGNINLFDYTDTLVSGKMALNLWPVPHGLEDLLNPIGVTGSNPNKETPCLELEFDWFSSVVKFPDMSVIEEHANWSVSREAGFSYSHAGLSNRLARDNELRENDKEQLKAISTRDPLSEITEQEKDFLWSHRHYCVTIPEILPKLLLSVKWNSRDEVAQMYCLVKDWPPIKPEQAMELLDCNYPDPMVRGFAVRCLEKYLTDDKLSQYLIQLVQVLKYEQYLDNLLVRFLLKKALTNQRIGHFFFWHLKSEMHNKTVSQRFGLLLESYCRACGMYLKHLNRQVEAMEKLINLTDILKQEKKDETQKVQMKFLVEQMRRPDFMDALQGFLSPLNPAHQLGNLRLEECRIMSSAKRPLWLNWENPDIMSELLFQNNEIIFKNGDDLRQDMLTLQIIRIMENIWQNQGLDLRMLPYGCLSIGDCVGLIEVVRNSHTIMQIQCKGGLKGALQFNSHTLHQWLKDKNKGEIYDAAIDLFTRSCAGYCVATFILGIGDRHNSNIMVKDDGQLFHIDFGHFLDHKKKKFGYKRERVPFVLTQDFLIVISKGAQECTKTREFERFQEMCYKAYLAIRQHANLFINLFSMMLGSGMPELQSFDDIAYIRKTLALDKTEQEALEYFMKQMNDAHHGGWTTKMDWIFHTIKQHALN

[4] = Metabolic stability in human liver microsomes at 5 uM after 20 mins
[5] = molecular target: T1, Phosphatidylinositol 4,5-bisphosphate 3-kinase catalytic subunit beta isoform (Homo sapiens, UniProt P42338); experiment: Inhibition of N-terminal ploy-His-tagged human PI3Kbeta expressed in baculovirus-infected sf21 cells using PI(4,5)P2 as substrate after 15 mins by HTRF assay
T1 sequence (P42338 whole entry, canonical isoform): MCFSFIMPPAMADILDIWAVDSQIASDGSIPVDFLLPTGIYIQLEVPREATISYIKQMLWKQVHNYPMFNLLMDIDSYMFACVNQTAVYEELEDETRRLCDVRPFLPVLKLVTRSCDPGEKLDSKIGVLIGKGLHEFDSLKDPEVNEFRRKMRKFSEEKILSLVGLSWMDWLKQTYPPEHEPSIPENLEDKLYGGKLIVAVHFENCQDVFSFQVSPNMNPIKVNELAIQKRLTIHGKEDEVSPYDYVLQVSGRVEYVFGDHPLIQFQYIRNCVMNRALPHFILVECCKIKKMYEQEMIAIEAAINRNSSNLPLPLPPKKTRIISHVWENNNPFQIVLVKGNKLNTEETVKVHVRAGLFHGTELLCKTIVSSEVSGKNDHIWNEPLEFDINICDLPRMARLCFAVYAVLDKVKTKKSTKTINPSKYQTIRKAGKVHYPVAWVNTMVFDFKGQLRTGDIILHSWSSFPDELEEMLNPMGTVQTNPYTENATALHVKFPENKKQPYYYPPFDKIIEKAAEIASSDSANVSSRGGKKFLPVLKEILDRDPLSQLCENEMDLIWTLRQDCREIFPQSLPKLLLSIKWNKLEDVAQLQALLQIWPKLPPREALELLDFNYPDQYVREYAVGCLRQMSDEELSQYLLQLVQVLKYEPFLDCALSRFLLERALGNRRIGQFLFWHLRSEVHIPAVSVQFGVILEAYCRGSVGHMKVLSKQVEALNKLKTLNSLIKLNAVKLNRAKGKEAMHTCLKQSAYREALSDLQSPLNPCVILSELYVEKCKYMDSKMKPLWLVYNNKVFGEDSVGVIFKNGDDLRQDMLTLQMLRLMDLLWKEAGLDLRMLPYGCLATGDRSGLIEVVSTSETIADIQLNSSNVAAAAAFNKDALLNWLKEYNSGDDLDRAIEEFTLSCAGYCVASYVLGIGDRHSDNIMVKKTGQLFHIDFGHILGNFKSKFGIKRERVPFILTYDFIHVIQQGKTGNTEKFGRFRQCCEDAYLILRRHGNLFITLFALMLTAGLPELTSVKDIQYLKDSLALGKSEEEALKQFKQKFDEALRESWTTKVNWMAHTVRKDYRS

[6] = Apparent permeability in human Caco2 cells at 5 uM after 20 mins; conditions: Caco-2
[7] = molecular target: T1, Phosphatidylinositol 4,5-bisphosphate 3-kinase catalytic subunit beta isoform; experiment: Inhibition of PI3Kbeta-mediated Akt phosphorylation at S473 in PTEN-deficient human PC3 cells after 0.5 to 2 hrs by Immunoblotting assay; format: cell-based, PC-3
[8] = molecular target: T2, Phosphatidylinositol 4,5-bisphosphate 3-kinase catalytic subunit delta isoform (Homo sapiens, UniProt O00329); experiment: Inhibition of N-terminal ploy-His-tagged human PI3Kdelta expressed in baculovirus-infected sf9 cells using PI(4,5)P2 as substrate after 15 mins by HTRF assay
T2 sequence (O00329 whole entry): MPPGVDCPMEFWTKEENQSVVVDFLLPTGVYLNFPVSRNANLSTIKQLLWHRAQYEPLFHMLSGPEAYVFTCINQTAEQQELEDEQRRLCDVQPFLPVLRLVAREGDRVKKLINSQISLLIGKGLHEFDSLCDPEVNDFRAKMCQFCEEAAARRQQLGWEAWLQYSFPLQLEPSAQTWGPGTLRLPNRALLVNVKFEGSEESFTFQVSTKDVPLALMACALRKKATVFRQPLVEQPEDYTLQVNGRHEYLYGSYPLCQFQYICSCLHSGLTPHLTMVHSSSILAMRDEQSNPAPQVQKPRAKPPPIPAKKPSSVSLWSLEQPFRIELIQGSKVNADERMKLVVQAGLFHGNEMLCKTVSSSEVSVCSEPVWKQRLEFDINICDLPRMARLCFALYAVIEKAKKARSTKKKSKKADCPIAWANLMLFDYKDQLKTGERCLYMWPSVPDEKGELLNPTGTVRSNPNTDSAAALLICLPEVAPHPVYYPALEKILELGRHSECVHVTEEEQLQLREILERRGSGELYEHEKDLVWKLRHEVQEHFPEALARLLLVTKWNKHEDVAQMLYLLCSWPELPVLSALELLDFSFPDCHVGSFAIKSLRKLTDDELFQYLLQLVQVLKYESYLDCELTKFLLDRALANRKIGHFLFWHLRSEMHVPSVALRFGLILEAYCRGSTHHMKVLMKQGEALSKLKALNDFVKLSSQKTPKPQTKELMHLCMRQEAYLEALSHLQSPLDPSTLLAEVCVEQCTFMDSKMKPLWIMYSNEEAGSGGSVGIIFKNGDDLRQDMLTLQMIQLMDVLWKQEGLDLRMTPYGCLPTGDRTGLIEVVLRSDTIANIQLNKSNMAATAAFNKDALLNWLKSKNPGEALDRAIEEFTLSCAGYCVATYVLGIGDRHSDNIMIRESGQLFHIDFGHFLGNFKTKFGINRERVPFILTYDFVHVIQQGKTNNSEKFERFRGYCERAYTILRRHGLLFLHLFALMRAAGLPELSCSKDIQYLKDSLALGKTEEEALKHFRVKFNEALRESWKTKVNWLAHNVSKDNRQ

[9] = molecular target: Phosphatidylinositol 4,5-bisphosphate 3-kinase catalytic subunit gamma isoform (Homo sapiens, UniProt P48736); experiment: Inhibition of C-terminal ploy-His-tagged human PI3Kgamma expressed in baculovirus-infected sf9 cells using PI(4,5)P2 as substrate after 15 mins by HTRF assay
Chain of Phosphatidylinositol 4,5-bisphosphate 3-kinase catalytic subunit gamma isoform (P48736 whole entry, canonical isoform): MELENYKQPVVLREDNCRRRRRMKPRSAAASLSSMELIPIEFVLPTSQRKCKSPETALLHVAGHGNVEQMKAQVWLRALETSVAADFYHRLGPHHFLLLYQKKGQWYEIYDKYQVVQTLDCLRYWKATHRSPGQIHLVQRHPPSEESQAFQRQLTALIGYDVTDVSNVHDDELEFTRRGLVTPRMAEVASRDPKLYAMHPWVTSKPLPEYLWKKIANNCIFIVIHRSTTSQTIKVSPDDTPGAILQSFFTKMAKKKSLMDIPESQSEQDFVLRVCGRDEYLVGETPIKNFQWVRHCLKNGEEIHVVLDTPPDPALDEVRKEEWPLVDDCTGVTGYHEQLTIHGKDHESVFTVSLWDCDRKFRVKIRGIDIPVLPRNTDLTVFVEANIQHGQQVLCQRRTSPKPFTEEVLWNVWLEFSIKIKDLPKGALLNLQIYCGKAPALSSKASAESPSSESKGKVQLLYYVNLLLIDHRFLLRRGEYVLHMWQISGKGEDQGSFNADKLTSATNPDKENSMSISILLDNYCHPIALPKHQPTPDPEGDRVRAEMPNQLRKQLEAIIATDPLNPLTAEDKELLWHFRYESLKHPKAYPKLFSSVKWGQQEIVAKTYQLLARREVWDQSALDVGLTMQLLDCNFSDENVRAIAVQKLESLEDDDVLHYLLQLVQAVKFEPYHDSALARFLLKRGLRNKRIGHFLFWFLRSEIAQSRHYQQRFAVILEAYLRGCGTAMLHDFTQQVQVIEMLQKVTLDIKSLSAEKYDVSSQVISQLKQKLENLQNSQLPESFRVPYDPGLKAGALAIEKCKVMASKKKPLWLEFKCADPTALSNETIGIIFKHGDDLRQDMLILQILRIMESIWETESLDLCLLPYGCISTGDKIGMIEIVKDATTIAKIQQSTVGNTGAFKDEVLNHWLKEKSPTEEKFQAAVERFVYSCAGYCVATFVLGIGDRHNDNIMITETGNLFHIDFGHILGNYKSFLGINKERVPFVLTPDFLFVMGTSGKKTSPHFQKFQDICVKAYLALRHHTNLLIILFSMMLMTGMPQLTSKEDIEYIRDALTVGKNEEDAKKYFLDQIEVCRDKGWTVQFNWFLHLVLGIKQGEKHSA

Cytochrome P450 3A4 = Cytochrome P450 3A4 (Homo sapiens, UniProt P08684); experiment: Inhibition of recombinant human CYP3A4
Chain of Cytochrome P450 3A4 (P08684 whole entry): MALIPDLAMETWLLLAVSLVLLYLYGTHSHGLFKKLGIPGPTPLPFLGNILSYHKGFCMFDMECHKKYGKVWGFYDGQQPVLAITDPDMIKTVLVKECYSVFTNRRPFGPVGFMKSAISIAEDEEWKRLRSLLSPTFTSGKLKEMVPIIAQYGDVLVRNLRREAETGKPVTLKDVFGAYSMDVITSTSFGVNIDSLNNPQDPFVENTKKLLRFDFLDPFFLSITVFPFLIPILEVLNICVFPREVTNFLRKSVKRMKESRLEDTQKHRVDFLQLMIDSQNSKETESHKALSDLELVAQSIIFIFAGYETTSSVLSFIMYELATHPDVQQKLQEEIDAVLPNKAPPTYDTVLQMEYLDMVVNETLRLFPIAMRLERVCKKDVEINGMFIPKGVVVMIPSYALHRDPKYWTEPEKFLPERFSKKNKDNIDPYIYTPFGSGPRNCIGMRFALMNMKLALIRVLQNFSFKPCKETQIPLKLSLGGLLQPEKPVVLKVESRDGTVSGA

| Compound | solubility [1] [µM] | remaining at 20 min, 5 µM ([2]; liver microsomes) [%] | pIC50 [3] | remaining at 20 min, 5 µM ([4]; liver microsomes) [%] | pIC50 [5] | Papp at 20 min, 5 µM [6] [×10⁻⁶ cm/s] | pIC50 [7] | pIC50 [8] | pIC50 [9] | pIC50 (Cytochrome P450 3A4) | remaining at 20 min, 5 µM ([2]; microsomes) [%] | remaining at 20 min, 5 µM ([4]; microsomes) [%] |
| --- | --- | --- | --- | --- | --- | --- | --- | --- | --- | --- | --- | --- |
| Cc1cccc2c1CCN2C(=O)Cc1nc(N2CCOCC2)cc(=O)[nH]1 | 3 (≈ 1.06 µg/mL) | 60 | 6.86 | 32 | 8.30 | 7.4 | 8.52 | 7.62 | 5.75 |  |  |  |
| CC1(C)Cc2ccccc2N1C(=O)Cc1nc(N2CCOCC2)cc(=O)[nH]1 | 46 (≈ 16.9 µg/mL) |  |  |  | 6.99 |  | 7.11 | 6.24 |  |  |  |  |
| CC1(C)CN(C(=O)Cc2nc(N3CCOCC3)cc(=O)[nH]2)c2ccccc21 | 46 (≈ 16.9 µg/mL) | 87 | 5.27 | 83 | 7.77 | 4 | 7.55 | 6.56 |  | 4.40 |  |  |
| CN1CCN(Cc2cccc3c2CCN3C(=O)Cc2nc(N3CCOCC3)cc(=O)[nH]2)CC1 | 4420 (≈ 2000 µg/mL) |  | 6.18 |  | 6.48 |  | 6.57 | 8.70 |  |  |  |  |
| O=C(Cc1nc(N2CCOCC2)cc(=O)[nH]1)N1CCc2cc(F)ccc21 | 31 (≈ 11.1 µg/mL) | 14 | 6.37 | 18 | 8.40 | 3 | 8.15 | 7.77 | 5.80 | 4.40 |  |  |
| O=C(Cc1nc(N2CCOCC2)cc(=O)[nH]1)N1CCc2c(-c3ccccn3)cccc21 | 110 (≈ 45.9 µg/mL) | 40 | 5.62 | 36 | 7.01 | 4.2 | 7.18 | 6.97 | 5.05 | 4.96 |  |  |
| O=C(Cc1nc(N2CCOCC2)cc(=O)[nH]1)N1CCc2ccccc21 | 12 (≈ 4.08 µg/mL) | 21 | 6.34 | 12 | 8.40 | 5.9 | 7.82 | 7.55 | 5.00 | 4.40 |  |  |
| O=C(Cc1nc(N2CCOCC2)cc(=O)[nH]1)N1CCc2c1cccc2C(F)(F)F | 12 (≈ 4.9 µg/mL) | 13 | 6.41 | 24 | 8.00 | 4.6 | 8.05 | 7.01 | 5.08 | 4.40 |  |  |
| O=C(Cc1nc(N2CCOCC2)cc(=O)[nH]1)N1CCc2c(F)cccc21 |  |  | 5.61 |  |  |  |  | 6.91 | 5.21 |  | 9 | 19 |
| O=C(Cc1nc(N2CCOCC2)cc(=O)[nH]1)N1CCc2c(Cl)cccc21 | 5 (≈ 1.87 µg/mL) | 27 | 7.07 | 18 | 9.00 | 8.8 | 8.52 | 7.68 | 5.95 | 4.40 |  |  |
| O=C(Cc1nc(N2CCOCC2)cc(=O)[nH]1)N1CCc2c(Br)cccc21 | 2 (≈ 0.839 µg/mL) | 22 | 7.07 | 24 | 8.22 | 4.2 | 9.00 | 7.26 | 5.40 | 4.40 |  |  |
| O=C(Cc1nc(N2CCOCC2)cc(=O)[nH]1)N1CCc2cc(Cl)ccc21 | 3 (≈ 1.12 µg/mL) | 36 | 5.69 | 34 | 7.10 | 1.4 | 6.91 | 5.38 | 5.00 | 4.40 |  |  |
| COc1cccc2c1CCN2C(=O)Cc1nc(N2CCOCC2)cc(=O)[nH]1 | 5 (≈ 1.85 µg/mL) | 70 | 5.62 | 0 | 7.39 | 0.6 | 7.22 | 6.19 |  | 4.40 |  |  |
| O=C(Cc1nc(N2CCOCC2)cc(=O)[nH]1)N1CCc2c(-c3ccccc3)cccc21 |  | 25 | 6.66 | 40 | 8.10 | 7.1 | 7.62 | 7.74 | 5.81 | 4.40 |  |  |
| Cn1c(CC(=O)N2CCc3ccccc32)nc(N2CCOCC2)cc1=O | 36 (≈ 12.8 µg/mL) | 37 | 5.36 | 14 | 7.32 | 8.3 | 7.70 | 6.56 |  |  |  |  |
| Cn1c(Cc2nc(N3CCOCC3)cc(=O)[nH]2)nc2ccccc21 |  |  |  |  |  |  |  |  | 5.00 |  |  |  |
| CC1Cc2ccccc2N1C(=O)Cc1nc(N2CCOCC2)cc(=O)[nH]1 (racemic) | 2750 (≈ 976 µg/mL) |  |  |  | 8.40 |  | 8.22 | 7.44 | 5.04 |  |  |  |
| CN1CCN(c2cccc3c2CCN3C(=O)Cc2nc(N3CCOCC3)cc(=O)[nH]2)CC1 | 1500 (≈ 656 µg/mL) |  | 6.02 |  | 6.39 |  | 6.78 | 7.66 | 5.00 |  |  |  |
| C[C@@H]1Cc2ccccc2N1C(=O)Cc1nc(N2CCOCC2)cc(=O)[nH]1 | 2500 (≈ 885 µg/mL) | 52 |  | 43 | 8.22 | 5.1 | 7.92 | 8.22 | 5.48 | 4.40 |  |  |
